Results from PMC4280904 (Journal of Veterinary Pharmacology and Therapeutics, 2014).

Assays:
Set-up in all cases: species or system Wistar rats
[1] = system: NAT2; experiment: In vivo enzyme induction: N-acetyltransferase, procainamide; settings: rats, 20 mg/kg i.p. once daily 7 days
[2] = system: CYP1A; experiment: In vivo enzyme induction: ethylresorufin O-deethylase; settings: rats
[3] = system: CYP2A; experiment: In vivo enzyme induction: ethoxycoumarin O-deethylase; settings: rats
[4] = system: CYP2B; experiment: In vivo enzyme induction: pentylresorufin O-depentylase; settings: rats
[5] = system: CYP3A; experiment: In vivo enzyme induction: erythromycin N-demethylase; settings: rats, 40 mg/kg p.o. once daily 7 days
[6] = 40 mg/kg p.o. once daily 7 days
[7] = 40 mg/kg i.p. once daily 7 days

## C[C@@H]1C[C@H]2[C@@H]3CCC4=CC(=O)C=C[C@]4(C)[C@@]3(F)[C@@H](O)C[C@]2(C)[C@@]1(O)C(=O)CO [Dexamethasone, dexamethasone, reference compound]
[1]
  NAT2 activity compared with untreated controls: 1.8 fold

## CCC1(c2ccccc2)C(=O)NC(=O)NC1=O [Phenobarbital, phenobarbital]
[2]; [6]
  CYP1A enzyme activity relative to control: 5.5 fold
[3]; [6]
  CYP2A enzyme activity relative to control: 2.6 fold
[4]; [6]
  CYP2B enzyme activity relative to control: 17.7 fold
[5]
  CYP3A enzyme activity relative to control: 3.5 fold

## O=c1cc(-c2ccccc2)oc2ccc3ccccc3c12 [β-naphthoflavone]
[2]; [7]
  CYP1A enzyme activity relative to control: 25.1 fold
[3]; [7]
  CYP2A enzyme activity relative to control: 15.8 fold
[4]; [7]
  CYP2B enzyme activity relative to control: 3.8 fold
